Data: patent publication US20250281457A1, “TREATMENT OR PREVENTION OF DENGUE VIRAL INFECTION” (Janssen Pharmaceuticals, Inc., priority 2022, published 2025)
Marks after values point to notes of the source that are not given here.

How the values were obtained:
[1] = Safety and tolerability, TEAEs (Example 2); format: in vivo, human
Procedure: Safety and tolerability of Compound (a) was evaluated throughout the study, as described in Example 1.

[2] = Safety and tolerability, adverse events (Example 1); format: in vivo, human
Procedure: Safety and tolerability of Compound (a) was evaluated throughout the study, by recording the adverse events (AE) and their grade, as reported by the participants. An AE is any untoward medical occurrence in a subject administered the pharmaceutical formulation comprising Compound (a). […] An AE can therefore be any unfavorable and unintended sign (including an abnormal finding), symptom, or disease temporally associated with the use of the pharmaceutical formulation comprising Compound (a), whether or not related to the administration of the pharmaceutical formulation comprising Compound (a) (definition per International Conference on Harmonisation [ICH].) This includes any occurrence that is new in onset or aggravated in severity or frequency from the baseline condition, or abnormal results of diagnostic procedures, including laboratory test abnormalities. Grade refers to the severity of the AE, according to the below guideline: • Grade 1 Mild: transient or mild discomfort (<48 hours); no medical intervention/therapy required. • Grade 2 Moderate: mild to moderate limitation in activity; some assistance may be needed; no or minimal medical intervention/therapy required. • Grade 3 Severe: marked limitation in activity; some assistance usually required; medical intervention/therapy required; hospitalizations possible. • Grade 4 Potentially Life-threatening: Extreme limitation in activity; significant assistance required; significant medical intervention/therapy required; hospitalization or hospice care probable. All reported AEs with onset during the treatment phase and AEs that have worsened since baseline (ie, treatment-emergent AEs (TEAEs)) were included in the analysis.

[3] = Panel 1 (400 mg fasted: Treatment A oral solution and Treatment B SF1b)
[4] = Panels 1 and 2 (400 mg fasted; oral solution, SF1b, SF2b)

COc1cc(NC(C(=O)c2c[nH]c3ccc(OC(F)(F)F)cc23)c2ccc(Cl)cc2OC)cc(S(C)(=O)=O)c1 (centres unmarked) [Compound (a)]
at least 1 TEAE reported ([1]; Panel 3, Treatment D (800 mg, fasted)): 9 (69.2%) # Participants (%)
at least 1 TEAE reported ([1]; Panel 3, Treatment E (800 mg, fed, standardized breakfast)): 6 (40.0%) # Participants (%)
at least 1 TEAE reported ([1]; Panel 4, Treatment F (200 mg, fasted)): 6 (46.2%) # Participants (%)
at least 1 TEAE reported ([1]; Panel 4, Treatment G (200 mg, fed, standardized breakfast)): 7 (58.3%) # Participants (%)
at least 1 TEAE reported ([1]; Panel 5, Treatment H (50 mg, fasted)): 5 (38.5%) # Participants (%)
at least 1 TEAE reported ([1]; Panel 5, Treatment I (50 mg, fed, standardized breakfast)): 8 (66.7%) # Participants (%)
Safety and tolerability, overall conclusion ([1]; single doses 50-800 mg SF2a/b, fasted or fed): safe and well tolerated
Related adverse events, Grade 1 [2, 3]: two Grade 1 AEs of throat irritation and dermatitis on one subject, and throat irritation and dermaturia in another subject
Related adverse events, Grade 2 [2, 3]: one Grade 2 AE of headache and dermatitis
Related adverse events, Grade 1 ([2]; Panel 2 (400 mg fasted: Treatment A oral solution and Treatment C SF2b)): two Grade 1 AEs of headache and dermatitis each in one subject
Grade 1 Treatment Emergent Events, overall [2, 4]: 11
Grade 2 Treatment Emergent Events, overall [2, 4]: 7
Grade 3 Treatment Emergent Events, overall [2, 4]: One
Grade 4 Treatment Emergent Events, overall [2, 4]: No
